Measured values reported in patent US20080170998A1 (priority 2005, published 2008).

Assays:
[1] = tested on: Prevotella nigrescens ATCC 25261 strain; conditions: O.D.660 nm after 24 hours and 48 hours, FIG. 4
[2] = tested on: Treponema denticola ATCC 33520 strain; test: Growth of periodontopathic bacteria in pRH-containing medium (turbidity O.D.660 nm); type: cell-based; conditions: 500 μg/mL, FIG. 9
Procedure: (§1) Each of the above cryopreserved strains was anaerobically cultivated at 35° C. for 48 hours by using TSB medium to which yeast extract (1 g/L), hemin ([…]), and menadione (1 mg/L) were added to provide a precultured bacterial culture.

[3] = tested on: Actinobacillus actinomycetemcomitans ATCC 29523 stain, Y4 strain; test: as above; type: cell-based; conditions: 500 μg/mL; ATCC 29523 and Y4 strains; FIGS. 5, 6
Procedure: as §1

[4] = tested on: Prevotella intermedia ATCC 49046 strain; test: as above; type: cell-based; conditions: 500 μg/mL, FIG. 3
Procedure: as §1

[5] = tested on: Fusobacterium nucleatum ATCC 23726 strain, ATCC 25586 strain; test: as above; type: cell-based; conditions: 500 μg/mL; ATCC 23726 and ATCC 25586 strains; FIGS. 7, 8
Procedure: as §1

[6] = tested on: Porphyromonas gingivalis ATCC 33277 strain, W50 strain; test: as above; type: cell-based; conditions: 500 μg/mL; ATCC 33277 and W50 strains; FIGS. 1, 2
Procedure: as §1

[7] = tested on: Porphyromonas gingivalis ATCC 33277 strain and Streptococcus oralis ATCC 9811 strain; conditions: pRH solution 2.5 mg/mL; PBS pH 6.0, 37° C.; FIG. 13
[8] = tested on: arginine-specific protease (Arg-gingipain; RGP); test: Protease inhibition, fluorogenic substrate Bz-Arg-methylcoumarinamide, culture supernatant; type: biochemical, Porphyromonas gingivalis; conditions: substrate 100 μM, 15 minutes room temperature
Procedure: Enzyme activity inhibitions of an arginine-specific protease (Arg-gingipain; hereinafter, referred to as “RGP”) and lysin-specific protease (Lys-gingipain; hereinafter, referred to as “KGP”) as dominant virulence factor for Porphyromonas gingivalis were examined.
The reaction was stopped by adding 2 mM TLCK, and released methyl-coumarin-amide was measured by means of spectrophotofluorometer (excitation wavelength: 380 nm, fluorescence wavelength: 460 nm).
Furthermore, an inhibition rate was defined according to the Equation (1):
Inhibition rate(%)=(Blank fluorescence intensity−Sample fluorescence intensity)÷Blank fluorescence intensity×100 (1)
Blank fluorescence intensity indicates fluorescence intensity upon reaction without adding pRH. Sample fluorescence intensity indicates fluorescence intensity upon reaction with adding pRH.

[9] = tested on: Porphyromonas gingivalis ATCC 33277 strain; type: cell-based; conditions: 0.1 mg/mL, 1 mg/mL, 10 mg/mL

Substance | concentration at which a growth inhibitory effect was observed [1] [µg/mL] | growth inhibitory effect [2] | growth inhibitory effect [3] | growth inhibitory effect [4] | growth inhibitory effect [5] | growth inhibitory effect [6] | aggregation inhibitory activity (inhibition rate of coaggregation) [7] [%] | inhibition rate for RGP ([8]; pRH at 100 μg/mL) [%] | inhibition rate for RGP ([8]; pRH at 1000 μg/mL) [%] | inhibition of the absorption (adhesion) of Porphyromonas gingivalis for sHA [9]
polyarginyl histidine [pRH] | ≥ 100 | not observed | not observed | not observed | not observed | not observed | 33 | 0.2 | 7.7 | obviously inhibited
polylysine [reference compound] | – | – | – | – | – | – | – | – | – | did not inhibit
